This note sets out measurements from PubChem BioAssay (NCI).

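Results reflect a 48-hour exposure of cells in 96-well plates to compound at five concentrations. GI50 marks 50% less growth. TGI: concentration producing complete growth inhibition.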

Among the test systems are RPMI-8226 leukemia; OVCAR-8 ovarian; M14 melanoma; OVCAR-3 ovarian; HOP-62 NSCLC; A549 NSCLC; SNB-19 CNS; HT29 colon; SW-620 colon; CCRF-CEM leukemia.
Common to all, as to experiment: NCI-60 cell line screen, 48 h

Take `COc1ccc2c(c1)[n+]([O-])c(-c1ccc(C)cc1)c(N)[n+]2[O-]`: the TGI with RPMI-8226 leukemia, in the test with OVCAR-8 ovarian, in the test with M14 melanoma, in the test on OVCAR-3 ovarian, in the test on HOP-62 NSCLC and with A549 NSCLC was above 100 µM throughout. Besides, the TGI with SNB-19 CNS, in the test on HT29 colon and in the test with SW-620 colon was above 100 µM throughout.

On to `CN[C@@H](C)[C@H](N)c1ccccc1`, for which the TGI in the test with RPMI-8226 leukemia, with CCRF-CEM leukemia, with OVCAR-8 ovarian, in the test with M14 melanoma, in the test on OVCAR-3 ovarian and in the test with A549 NSCLC was above 100 µM each time. Besides, the TGI in the test with HT29 colon and in the test on SW-620 colon was above 100 µM throughout.

Consider `NCCOc1ccccc1/C=C1\c2ccccc2-c2ccc([N+](=O)[O-])cc21`, for which the GI50 is 1.79 µM in the test with RPMI-8226 leukemia; 1.08 µM in the test with CCRF-CEM leukemia; 1.53 µM in the test on OVCAR-8 ovarian; 1.65 µM in the test with M14 melanoma; 1.76 µM with OVCAR-3 ovarian; 1.53 µM in the test on HOP-62 NSCLC. Moreover, the GI50 is 1.42 µM with HT29 colon and 1.09 µM in the test on SW-620 colon. The TGI in the test on RPMI-8226 leukemia amounted to 3.63 µM; in the test on CCRF-CEM leukemia, 2.54 µM; with OVCAR-8 ovarian, 3.33 µM; with M14 melanoma, 3.02 µM; in the test on OVCAR-3 ovarian, 3.17 µM; with HOP-62 NSCLC, 3.18 µM. Besides, the TGI in the test with HT29 colon turned out to be 2.84 µM; in the test on SW-620 colon, 2.43 µM.

`CC(=O)[CH-]C(=O)c1ccccc1.CC(=O)[CH-]C(=O)c1ccccc1.Cl.[O-]c1ccccn1.[O-]c1ccccn1.[Ti+4]`: the GI50 in the test on RPMI-8226 leukemia, in the test on OVCAR-8 ovarian, with M14 melanoma, with OVCAR-3 ovarian, with HOP-62 NSCLC and in the test with A549 NSCLC was above 100 µM in each case. The GI50 in the test on SNB-19 CNS, with HT29 colon and with SW-620 colon was above 100 µM in each case. Moreover, the TGI in the test on RPMI-8226 leukemia, in the test on OVCAR-8 ovarian, with M14 melanoma, with OVCAR-3 ovarian, with HOP-62 NSCLC and in the test with A549 NSCLC was above 100 µM in each case. Also, the TGI with SNB-19 CNS, in the test on HT29 colon and with SW-620 colon was above 100 µM in each case.

With `Cc1ccc(C2=Nc3c(N)ncnc3NC(c3ccc4c(c3)OCO4)C2)cc1` (centres undefined), the GI50 with OVCAR-8 ovarian is 13.5 µM; with M14 melanoma it was above 100 µM; with OVCAR-3 ovarian it was 2.75 µM; with HOP-62 NSCLC, above 100 µM; in the test with A549 NSCLC, 7.09 µM; with SNB-19 CNS it was 38.2 µM. The figures for the GI50 in the test on HT29 colon and in the test on SW-620 colon were 3.81 µM and 3.56 µM, respectively. Also, the TGI in the test on OVCAR-8 ovarian was above 100 µM; in the test on M14 melanoma, above 100 µM; in the test with OVCAR-3 ovarian, 6.11 µM; in the test on HOP-62 NSCLC, above 100 µM; in the test on A549 NSCLC it was 52.9 µM; with SNB-19 CNS it was above 100 µM. The figures for the TGI in the test with HT29 colon and in the test with SW-620 colon were 33.9 µM and 16.8 µM, respectively.

As for `CN(C)CC(C(=O)Cc1ccccc1)c1ccccc1` (centres undefined), the GI50 in the test with RPMI-8226 leukemia is 0.444 µM; in the test on OVCAR-8 ovarian, 6.75 µM; in the test on M14 melanoma, 2.34 µM; with OVCAR-3 ovarian, 1.9 µM; with HOP-62 NSCLC, 6.87 µM; in the test with A549 NSCLC, 16.7 µM. Moreover, the GI50 with SNB-19 CNS was 15 µM; with SW-620 colon it was 1.79 µM. In addition, the TGI with RPMI-8226 leukemia was determined as 3.17 µM; with OVCAR-8 ovarian, 23.1 µM; with M14 melanoma, 4.97 µM; with OVCAR-3 ovarian, 3.48 µM; in the test with HOP-62 NSCLC, 21 µM; in the test on A549 NSCLC it was 35.5 µM. The TGI with SNB-19 CNS stood at 30 µM; in the test on SW-620 colon it was 3.59 µM.

On to `COc1ccc2c(Cl)cc(NC(=O)Nc3c(C)cccc3C)nc2c1`, for which the GI50 was above 100 µM in the test with RPMI-8226 leukemia; 24.7 µM with OVCAR-8 ovarian; 31.8 µM in the test with M14 melanoma; 23.5 µM with OVCAR-3 ovarian; 3.91 µM with HOP-62 NSCLC; 6.1 µM in the test with A549 NSCLC. Besides, the GI50 in the test with SNB-19 CNS is 72.7 µM; in the test on HT29 colon, 33.9 µM; with SW-620 colon it was 38.9 µM. In addition, the TGI was above 100 µM with RPMI-8226 leukemia; above 100 µM with OVCAR-8 ovarian; above 100 µM with M14 melanoma; above 100 µM in the test with OVCAR-3 ovarian; 15.3 µM in the test with HOP-62 NSCLC; 69.4 µM in the test on A549 NSCLC. Besides, the TGI with SNB-19 CNS, in the test on HT29 colon and with SW-620 colon was above 100 µM each time.

`C#CC1(O)c2ccccc2C(=O)c2ccccc21`: the TGI with CCRF-CEM leukemia, in the test on OVCAR-8 ovarian, in the test with HOP-62 NSCLC, in the test with A549 NSCLC, in the test with SNB-19 CNS and in the test with HT29 colon was above 100 µM each time. In the test on SW-620 colon, this compound showed a TGI above 100 µM.

Take `CC1C[C@]2(C[C@@H](C)C(=O)O2)O[C@@H]2CC3(C)[C@@H]4CCC5C(C)(C)OC(=O)C[C@H]6OO[C@]4(CC[C@]3(C)C12)CC56O` (some centres undefined): the TGI in the test on RPMI-8226 leukemia, in the test on OVCAR-8 ovarian, with M14 melanoma, in the test with OVCAR-3 ovarian, with A549 NSCLC and in the test with SNB-19 CNS was above 100 µM in each case. Also, the TGI in the test on HT29 colon and in the test with SW-620 colon was above 100 µM each time.

With `C=C(CC(=O)O)C(=O)O` (tested in a mixture with another compound), the GI50 with RPMI-8226 leukemia, in the test with OVCAR-8 ovarian, in the test with M14 melanoma, with OVCAR-3 ovarian, in the test on HOP-62 NSCLC and in the test with A549 NSCLC was above 50 µg/mL throughout. Besides, the GI50 in the test with SNB-19 CNS, in the test on HT29 colon and with SW-620 colon was above 50 µg/mL in each case. Further, the TGI with RPMI-8226 leukemia, with OVCAR-8 ovarian, with M14 melanoma, in the test on OVCAR-3 ovarian, in the test with HOP-62 NSCLC and in the test on A549 NSCLC was above 50 µg/mL each time. Further, the TGI with SNB-19 CNS, with HT29 colon and in the test with SW-620 colon was above 50 µg/mL each time.
